Reference: patent US9278527B2, “Ink jet recording ink, ink jet recording method, ink jet recording head, and ink jet recording apparatus” (CANON FINETECH INC., priority 2013, dated 2016)
Read-outs that look alike come from different tables or passages of the source.

Columns and labels:
[1] = Hydrophilicity-hydrophobicity coefficient from water activity value of 20% aqueous solution (equation (A)); type: physicochemical
[2] = 20% aqueous solution, water activity by chilled mirror dew point method (AquaLab CX-3TE) at 25° C., equation (A)

Hydrophilicity-hydrophobicity coefficient [1, 2]	Solubility (Solubility in water) [g/100 g H2O]	Compound	Hydrophilicity-hydrophobicity coefficient [1]
		Bishydroxyethyl sulfone	0.21
0.22	> 20	CC(O)C(O)CO (stereo not drawn) [1,2,3-Butanetriol]	
−0.43	> 20	Polyethylene glycol 600	
0.97	> 20	CCCCC(O)CO (stereo not drawn) [1,2-Hexanediol]	
0.41	> 20	OCCCCCO [1,5-Pentanediol]	
0.93	> 20	CCCC(O)CO (stereo not drawn) [1,2-Pentanediol]	
0.54	> 20	CC(CCO)CCO [3-Methyl-1,5-Pentanediol]	
0.86	> 20	CC(O)CC(C)O (stereo not drawn) [2,4-Pentanediol]	
0.07	> 20	OCCOCCOCCO [Triethylene glycol]	
0.90	> 20	CC(C)(O)CCO [3-Methyl-1,3-butanediol]	
0.28	> 20	OCCCCC(O)CO (stereo not drawn) [1,2,6-Hexanetriol]	
0.76	> 20	OCCCCCCO [1,6-Hexanediol]	
0.73	> 20	OCCCCCCCO [1,7-Heptanediol]	
0.21	> 20	OC[C@@H](O)[C@@H](O)[C@H](O)[C@@H](O)CO [Sorbitol]	
0.11	> 20	OCC(O)CO [Glycerin]	
0.15	> 20	OCCC(O)CO (stereo not drawn) [1,2,4-Butanetriol]	
0.30	> 20	O=C1NCCN1 [Ethylene urea]	
−0.09	> 20	Polyethylene glycol 200	
0.90	> 20	CCC(O)CO (stereo not drawn) [1,2-Butanediol]	

Compound	Hydrophilicity-hydrophobicity coefficient [1, 2]	Solubility (Solubility in water) [g/100 g H2O]	Hydrophilicity-hydrophobicity coefficient [1]
NC(N)=O [Urea]	0.20	> 20	
